“And” between values parts separate entries of the source, which are not always exact repeats. Identical values can stand only once. Blank lines part the entries; values can stand above or below the molecule they belong to.
Legend:
[1] = tested on: PSMA; design: method as in PMID 27279903; details: PSMA-binding ligand with different chelators; cited from earlier work
[2] = molecular target: PSMA; design: method as in PMID 30097503; details: cited from earlier work
[3] = Stability in mouse serum, radio-HPLC; type: in vitro ADME; details: 24 h post-incubation, 37 °C, indium-111 labeled, intact fraction
Procedure: [^111In]In-22 or [^111In]In-30 (~35 MBq, 70 µL) was mixed with 330 μL of mouse serum and incubated at 37 °C for up to 24 h. After 1, 4, and 24 h incubation, 50 μL of the mouse serum solution was added to a separate vial containing 50 µL of acetonitrile. The sample was centrifuged at 5000× g for 20 min. The supernatant was analyzed by radio-HPLC.

[4] = Stability in aqueous solution (LC-MS); type: physicochemical; details: water, room temperature
Procedure: Dimerization was performed by elongation of 16 with 3-tritylthiopropionic acid, and reaction with 3,6-dichlorotetrazine following a biphasic protocol after cleavage from the solid support. Finally, addition of the chelator DOTA-TCO 26 was performed via the inverse electron-demand Diels–Alder reaction (IEDDA) to yield the dimeric product 27. However, it was noticed that 27 was not stable in aqueous solution, with degradation observed by LC-MS 20 min after incubation in water at room temperature. […] We hypothesized that it could originate from intramolecular interaction between the sulfur and the carboxylic acid group of the aspartic acid. Therefore, we modified the design of the dimer to include a longer spacer between 16 and the tetrazine. We replaced the 3-mercaptopropionic acid with a 6-mercaptohexanoic acid spacer. The resulting compound 30 (Scheme 2), obtained after dimerization and IEDDA reaction, was radiolabeled with In-111 and obtained in high RCY (>99%) and RCP (92.3%). It was stable in aqueous media and in the radiolabeling conditions, but also in PBS and mouse serum (>90% intact [^111In]In-30 at 24 h; Figure S7).

[5] = molecular target: T1, Recombinant human PSMA (rhPSMA) (Homo sapiens, UniProt Q04609); test: NAALADase assay (competitive inhibition, Amplex Red glutamate readout); type: biochemical; details: rhPSMA, substrate Ac-Asp-Glu, 1 h 37 °C
T1 construct: purchased R&D systems, Abingdon, UK
T1 sequence (Q04609 whole entry): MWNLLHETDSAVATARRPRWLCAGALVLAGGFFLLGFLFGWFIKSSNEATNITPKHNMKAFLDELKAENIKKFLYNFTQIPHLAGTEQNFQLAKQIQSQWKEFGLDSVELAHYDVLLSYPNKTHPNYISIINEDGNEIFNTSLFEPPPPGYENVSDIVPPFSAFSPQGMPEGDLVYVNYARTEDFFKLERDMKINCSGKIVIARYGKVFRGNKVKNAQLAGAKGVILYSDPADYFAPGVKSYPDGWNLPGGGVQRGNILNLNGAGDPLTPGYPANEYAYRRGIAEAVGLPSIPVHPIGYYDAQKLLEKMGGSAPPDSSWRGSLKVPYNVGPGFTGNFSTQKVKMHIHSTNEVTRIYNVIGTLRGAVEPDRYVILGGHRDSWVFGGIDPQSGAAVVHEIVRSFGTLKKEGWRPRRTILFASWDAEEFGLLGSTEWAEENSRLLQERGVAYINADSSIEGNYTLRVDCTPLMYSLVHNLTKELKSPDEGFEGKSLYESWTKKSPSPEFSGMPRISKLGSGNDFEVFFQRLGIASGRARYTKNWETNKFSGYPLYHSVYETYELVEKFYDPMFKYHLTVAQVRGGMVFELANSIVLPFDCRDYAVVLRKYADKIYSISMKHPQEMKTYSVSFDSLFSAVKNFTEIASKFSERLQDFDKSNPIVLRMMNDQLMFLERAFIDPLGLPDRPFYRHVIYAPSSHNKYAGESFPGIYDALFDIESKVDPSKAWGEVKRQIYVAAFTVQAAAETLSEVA
Procedure: Recombinant human PSMA (rhPSMA; R&D systems, Abingdon, UK) was diluted in assay buffer (50 mM HEPES, 0.1 M NaCl, pH 7.5) to 0.4 μg/mL. The substrate Ac–Asp–Glu (40 μM) was mixed with the synthesized derivatives and with a reference (PSMA-617) at concentrations ranging from 10^−6 to 10^−13 M in a final volume of 12.5 μL assay buffer. The mixtures were combined with 12.5 μL of the rhPSMA solution and incubated for 1 h at 37 °C in 384-well black polystyrene microplates (ThermoFisher, Bleiswijk, The Netherlands). The amount of glutamate released was measured by incubating with 25 μL of a working solution of the Amplex Red glutamic acid kit (ThermoFisher, Bleiswijk, The Netherlands) at 37 °C for 30 min. Fluorescence was measured with a HIDEX Sense Optical System (Goedereede, The Netherlands) with excitation at 535 nm and emission at 590 nm. Data were normalized and analyzed using a one-site total binding regression with GraphPad Prism v9.0 (GraphPad Software, San Diego, CA, USA).

[6] = Stability in phosphate-buffered saline (PBS), radio-HPLC; type: physicochemical; details: 24 h post-incubation, 37 °C, indium-111 labeled, intact fraction
Procedure: [^111In]In-22 or [^111In]In-30 (~10 MBq, 20 µL) was mixed with 80 μL of PBS (0.01 M, pH 7.4) and incubated at 37 °C for up to 24 h. A sample of the PBS solution was loaded directly onto the radio-HPLC at 1, 4, and 24 h post-incubation.

[7] = design: method as in PMID 33495926; details: co-administration of maximum dose of 2000 pmoles PSMA-11; cited from earlier work

Compound: O=C(O)CCC(NC(=O)NC(CCCCNC(=O)C(Cc1ccc2ccccc2c1)NC(=O)C1CCC(CNC(=O)CCC(C(=O)O)N2CCN(CC(=O)O)CCN(CC(=O)O)CC2)CC1)C(=O)O)C(=O)O (stereo not drawn) [NODAGA-conjugate]
Internalization rate [1]: 48.5 ± 16.4%

Compound: N[C@@H](CCC(=O)O)C(=O)[O-].[Na+] [Monosodium glutamate]
Ki [2]: 900 nM

Stability in Mouse Serum (%) [3]: > 90%
Stability in aqueous solution [4]: stable
IC50 [5]: 1.05 nM and 1 to 1.6 nM
Stability in PBS (%) [6]: > 90%
Compound: CC(C)CC(NC(=O)C(Cc1ccccc1)NC(=O)C(CC(=O)O)NC(=O)CCCCCSC1=NNC(SCCCCCC(=O)NC(CC(=O)O)C(=O)NC(Cc2ccccc2)C(=O)NC(CC(C)C)C(O)CC(=O)NCCCCCC(=O)NCCCCC(NC(=O)NC(CCC(=O)O)C(=O)O)C(=O)O)=C2CCC(OC(=O)NCCCNC(=O)CN3CCN(CC(=O)O)CCN(CC(=O)O)CCN(CC(=O)O)CC3)CCCC12)C(O)CC(=O)NCCCCCC(=O)NCCCCC(NC(=O)NC(CCC(=O)O)C(=O)O)C(=O)O [Compound 30, [EuK(Ahx-Sta-L-Phe-Asp-SHx)]2-Tz-TCO-DOTA]

Compound: O=C(O)CCc1ccc(O)c(CN(CCN(CC(=O)O)Cc2cc(CCC(=O)NCCCCCC(=O)NCCCC[C@H](NC(=O)N[C@@H](CCC(=O)O)C(=O)O)C(=O)O)ccc2O)CC(=O)O)c1 [PSMA-11]
Decrease in kidney uptake of [177Lu]Lu-PSMA [7]: 99.5%
Decrease in salivary gland uptake of [177Lu]Lu-PSMA [7]: 89.5%
Decrease in tumor-uptake of [177Lu]Lu-PSMA [7]: 44.5%

Source: publication PMC10223019, “Preclinical Evaluation of a PSMA-Targeting Homodimer with an Optimized Linker for Imaging of Prostate Cancer” (Molecules, 2023)
